Results taken from PubChem BioAssay AID192 (DTP/NCI, 2004).
“And” between values parts separate entries of the source, which are not always exact repeats. Identical values can stand only once. Toxic doses and inconclusive results are not listed.

System: BDF1 mice, B16 melanoma ip, median survival T/C
Assay: NCI In Vivo Anticancer Drug Screen. Data for tumor model B16 Melanoma (intraperitoneal) in B6D2F1 (BDF1) mice
Settings: endpoint: median survival time, higher = longer survival
Summary of the method: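 Transplantable tumor model; survival or tumor size measured; reported as T/C, treated over vehicle control.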

[1] = dose: 12.5 mg/kg/injection, schedule: Q01DX009 (ip), vehicle: saline
[2] = dose: 25.0 mg/kg/injection, schedule: Q01DX009 (ip), vehicle: saline
[3] = dose: 50.0 mg/kg/injection, schedule: Q01DX009 (ip), vehicle: saline

Which T/C (dose: 6.25 mg/kg/injection, schedule: Q01DX009 (ip), vehicle: saline) does the source give for `CN(C)/N=N/c1nc[nH]c1C(N)=O` here?
Its T/C is 110 % of control.

And the T/C (dose: 6.25 mg/kg/injection, schedule: Q01DX009 (ip), vehicle: steriod suspending solution)?
Its T/C is 105 % of control.

And the T/C (dose: 12.5 mg/kg/injection, schedule: Q01DX009 (ip), vehicle: carboxymethylcellulose (CMC))?
The T/C was 121 % of control.

And the T/C [1]?
The T/C was 115 % of control.

What about the T/C (dose: 12.5 mg/kg/injection, schedule: Q01DX009 (ip), vehicle: steriod suspending solution) of the same compound?
Its T/C is 107 % of control.

What about the T/C (dose: 13.0 mg/kg/injection, schedule: Q01DX009 (ip), vehicle: saline with Tween-80) of the same compound?
The T/C was 114 % of control.

What about the T/C (dose: 18.75 mg/kg/injection, schedule: Q01DX009 (ip), vehicle: Klucel (hydroxypropylcellulose) (HPC)) of the same compound?
Its T/C is 101 % of control.

And the T/C (dose: 18.8 mg/kg/injection, schedule: Q01DX009 (ip), vehicle: saline)?
Its T/C is 105 % of control.

And the T/C (dose: 18.8 mg/kg/injection, schedule: Q04DX005 (ip), vehicle: saline)?
Its T/C is 94 % of control.

And the T/C (dose: 25.0 mg/kg/injection, schedule: Q01DX009 (ip), vehicle: carboxymethylcellulose (CMC))?
Its T/C is 115 % of control.

What about the T/C (dose: 25.0 mg/kg/injection, schedule: Q01DX009 (ip), vehicle: distilled water + Tween-80) of the same compound?
The T/C was 117 % of control.

And the T/C (dose: 25.0 mg/kg/injection, schedule: Q01DX009 (ip), vehicle: saline with Tween-80)?
Its T/C is 107 % of control.

What about the T/C [2] of the same compound?
Its T/C is 102 % of control and 110 % of control and 114 % of control.

What about the T/C (dose: 25.0 mg/kg/injection, schedule: Q01DX009 (ip), vehicle: steriod suspending solution) of the same compound?
The T/C was 115 % of control.

And the T/C (dose: 25.0 mg/kg/injection, schedule: Q01DX017 (ip), vehicle: saline)?
Its T/C is 116 % of control.

And the T/C (dose: 25.0 mg/kg/injection, schedule: Q04DX003 (ip), vehicle: saline with Tween-80)?
Its T/C is 104 % of control and 105 % of control and 115 % of control.

And the T/C (dose: 27.5 mg/kg/injection, schedule: Q01DX009 (ip), vehicle: saline)?
The T/C was 100 % of control.

And the T/C (dose: 37.0 mg/kg/injection, schedule: Q01DX009 (ip), vehicle: saline with Tween-80)?
The T/C was 112 % of control.

What about the T/C (dose: 37.5 mg/kg/injection, schedule: Q04DX003 (ip), vehicle: saline) of the same compound?
The T/C was 100 % of control.

And the T/C (dose: 37.5 mg/kg/injection, schedule: Q04DX005 (ip), vehicle: saline)?
Its T/C is 97 % of control.

What about the T/C (dose: 48.0 mg/kg/injection, schedule: Q01DX005 (ip), vehicle: Klucel (hydroxypropylcellulose) (HPC)) of the same compound?
The T/C was 99 % of control.

And the T/C (dose: 50.0 mg/kg/injection, schedule: Q01DX009 (ip), vehicle: carboxymethylcellulose (CMC))?
Its T/C is 110 % of control.

And the T/C (dose: 50.0 mg/kg/injection, schedule: Q01DX009 (ip), vehicle: saline with Tween-80)?
The T/C was 124 % of control.

What about the T/C [3] of the same compound?
Its T/C is 105 % of control and 114 % of control and 121 % of control.

What about the T/C (dose: 50.0 mg/kg/injection, schedule: Q01DX009 (ip), vehicle: steriod suspending solution) of the same compound?
The T/C was 115 % of control.

And the T/C (dose: 50.0 mg/kg/injection, schedule: Q01DX017 (ip), vehicle: saline)?
Its T/C is 114 % of control.

What about the T/C (dose: 50.0 mg/kg/injection, schedule: Q04DX003 (ip), vehicle: saline with Tween-80) of the same compound?
Its T/C is 115 % of control.

And the T/C (dose: 72.0 mg/kg/injection, schedule: Q01DX005 (ip), vehicle: Klucel (hydroxypropylcellulose) (HPC))?
Its T/C is 101 % of control.

What about the T/C (dose: 75.0 mg/kg/injection, schedule: Q01DX001 (ip), vehicle: saline) of the same compound?
The T/C was 114 % of control.

What about the T/C (dose: 75.0 mg/kg/injection, schedule: Q04DX003 (ip), vehicle: saline) of the same compound?
The T/C was 107 % of control.

And the T/C (dose: 75.0 mg/kg/injection, schedule: Q04DX005 (ip), vehicle: saline)?
Its T/C is 107 % of control.

And the T/C (dose: 100.0 mg/kg/injection, schedule: Q01DX009 (ip), vehicle: carboxymethylcellulose (CMC))?
The T/C was 105 % of control.

What about the T/C (dose: 100.0 mg/kg/injection, schedule: Q01DX009 (ip), vehicle: distilled water + Tween-80) of the same compound?
Its T/C is 124 % of control.

What about the T/C (dose: 100.0 mg/kg/injection, schedule: Q01DX009 (ip), vehicle: saline with Tween-80) of the same compound?
Its T/C is 123 % of control.

And the T/C (dose: 100.0 mg/kg/injection, schedule: Q01DX009 (ip), vehicle: saline)?
The T/C was 110 % of control (2×) and 119 % of control.

What about the T/C (dose: 100.0 mg/kg/injection, schedule: Q01DX009 (ip), vehicle: steriod suspending solution) of the same compound?
The T/C was 115 % of control.

And the T/C (dose: 100.0 mg/kg/injection, schedule: Q01DX017 (ip), vehicle: saline)?
The T/C was 123 % of control.

What about the T/C (dose: 108.0 mg/kg/injection, schedule: Q01DX005 (ip), vehicle: Klucel (hydroxypropylcellulose) (HPC)) of the same compound?
Its T/C is 98 % of control.

And the T/C (dose: 130.0 mg/kg/injection, schedule: Q01DX009 (ip), vehicle: DMSO)?
The T/C was 105 % of control.

And the T/C (dose: 148.0 mg/kg/injection, schedule: Q04DX003 (ip), vehicle: saline with Tween-80)?
The T/C was 110 % of control.

And the T/C (dose: 150.0 mg/kg/injection, schedule: Q01DX001 (ip), vehicle: saline)?
The T/C was 112 % of control.

What about the T/C (dose: 150.0 mg/kg/injection, schedule: Q04DX003 (ip), vehicle: saline) of the same compound?
Its T/C is 112 % of control.

And the T/C (dose: 160.0 mg/kg/injection, schedule: Q01DX005 (ip), vehicle: Klucel (hydroxypropylcellulose) (HPC))?
Its T/C is 101 % of control.

And the T/C (dose: 166.7 mg/kg/injection, schedule: Q01DX009 (ip), vehicle: saline with Tween-80)?
Its T/C is 77 % of control.

And the T/C (dose: 200.0 mg/kg/injection, schedule: Q01DX009 (ip), vehicle: distilled water + Tween-80)?
Its T/C is 121 % of control.

And the T/C (dose: 200.0 mg/kg/injection, schedule: Q01DX009 (ip), vehicle: saline)?
The T/C was 117 % of control and 118 % of control.

And the T/C (dose: 200.0 mg/kg/injection, schedule: Q04DX003 (ip), vehicle: saline with Tween-80)?
Its T/C is 109 % of control.

And the T/C (dose: 216.0 mg/kg/injection, schedule: Q01DX009 (ip), vehicle: DMSO)?
Its T/C is 109 % of control.

What about the T/C (dose: 222.0 mg/kg/injection, schedule: Q04DX003 (ip), vehicle: saline with Tween-80) of the same compound?
The T/C was 115 % of control.

What about the T/C (dose: 240.0 mg/kg/injection, schedule: Q01DX005 (ip), vehicle: Klucel (hydroxypropylcellulose) (HPC)) of the same compound?
The T/C was 99 % of control.

What about the T/C (dose: 277.8 mg/kg/injection, schedule: Q01DX009 (ip), vehicle: saline with Tween-80) of the same compound?
Its T/C is 53 % of control.

And the T/C (dose: 300.0 mg/kg/injection, schedule: Q01DX001 (ip), vehicle: saline)?
Its T/C is 102 % of control.

And the T/C (dose: 300.0 mg/kg/injection, schedule: Q04DX003 (ip), vehicle: saline)?
The T/C was 114 % of control.

And the T/C (dose: 300.0 mg/kg/injection, schedule: Q04DX005 (ip), vehicle: saline)?
The T/C was 115 % of control.

What about the T/C (dose: 333.0 mg/kg/injection, schedule: Q04DX003 (ip), vehicle: saline with Tween-80) of the same compound?
The T/C was 124 % of control.

What about the T/C (dose: 500.0 mg/kg/injection, schedule: Q04DX003 (ip), vehicle: saline with Tween-80) of the same compound?
Its T/C is 114 % of control.

What about the T/C (dose: 600.0 mg/kg/injection, schedule: Q01DX001 (ip), vehicle: saline) of the same compound?
Its T/C is 107 % of control.

What about the T/C (dose: 600.0 mg/kg/injection, schedule: Q04DX003 (ip), vehicle: saline) of the same compound?
The T/C was 95 % of control.

What about the T/C (dose: 750.0 mg/kg/injection, schedule: Q04DX003 (ip), vehicle: saline with Tween-80) of the same compound?
Its T/C is 124 % of control.

And the T/C (dose: 800.0 mg/kg/injection, schedule: Q04DX003 (ip), vehicle: saline with Tween-80)?
The T/C was 45 % of control.

What about the T/C (dose: 1200.0 mg/kg/injection, schedule: Q01DX001 (ip), vehicle: saline) of the same compound?
Its T/C is 117 % of control.

Which results are given for `COc1ccc(Oc2cc(CC3c4cc(OC)c(OC)cc4CCN3C)c([N+](=O)[O-])cc2OC)cc1OC` (stereo unspecified)?
T/C [1]: 100 % of control; T/C [2]: 100 % of control; T/C [3]: 98 % of control

Which T/C (dose: 12.5 mg/kg/injection, schedule: Q01DX001 (ip), vehicle: water) does the source give for `COc1cccc2c1C(=O)c1c(O)c3c(c(O)c1C2=O)C[C@H](O)C[C@@H]3OC1CC(N)C(O)C(C)O1` (stereo partly specified) here?
Its T/C is 169 % of control.

What about the T/C (dose: 50.0 mg/kg/injection, schedule: Q01DX001 (ip), vehicle: water) of the same compound?
The T/C was 110 % of control and 169 % of control and 267 % of control.

And the T/C (dose: 100.0 mg/kg/injection, schedule: Q01DX001 (ip), vehicle: water)?
The T/C was 110 % of control.

What does the source list for `CC(=O)OC1CCC2(C)C(CC(=O)C(C)C23CCC2(C=COC2)O3)C1(C)C` (stereo unspecified)?
T/C (dose: 6.0 mg/kg/injection, schedule: Q01DX009 (ip), vehicle: Klucel (hydroxypropylcellulose) (HPC)): 101 % of control; T/C (dose: 12.0 mg/kg/injection, schedule: Q01DX009 (ip), vehicle: Klucel (hydroxypropylcellulose) (HPC)): 99 % of control; T/C (dose: 24.0 mg/kg/injection, schedule: Q01DX009 (ip), vehicle: Klucel (hydroxypropylcellulose) (HPC)): 95 % of control; T/C (dose: 48.0 mg/kg/injection, schedule: Q01DX009 (ip), vehicle: Klucel (hydroxypropylcellulose) (HPC)): 99 % of control
